Source: patent US8846860B2, “Methods of decorating hydroxyapatite biomaterials with modular biologically active molecules” (Wisconsin Alumni Research Foundation, priority 2009, dated 2014)
Non-standard residues stand in square brackets, D forms with d. No end group written: not given here. Gla = N[C@@H](CC(C(=O)O)C(=O)O)C(=O)O

How the values were obtained:
[1] = Binding of VEGF-OCN and VEGF-mimic to HA particle / HA slab
Experimental: To measure the binding efficiency of modular peptides to the HA-coated PLG films and to gain preliminary insight into the properties that influence modular peptide immobilization, we first exposed 1 cm^2 HA-coated PLG films to PBS solutions containing 500 μg (1 mg/ml) of 5(6) FAM-conjugated eBMP-2, eBGu1, eBGu3, eBGa1, or eBGa3 modular peptide solution (See Table 1 for definitions of these abbreviations). The films were incubated in peptide solutions with constant agitation for 4 hours at 37° C., and the amount of free peptide remaining was determined by measuring the fluorescence emission of the solution (excitation: 494 nm; emission 519 nm) using a Synergy HT Multi-Detection Microplate Reader (BioTek, Winooski, Vt.), and comparing this emission to standard samples with known concentrations of 5(6)-FAM. To further characterize surface immobilization of the peptide with the highest binding efficiency—the eBGa3 peptide—1 cm^2 HA-coated films were incubated in various concentrations (50-750 μM) of 5(6)-FAM-conjugated eBGa3 peptide for 4 hours with constant agitation at 37° C. The amount of peptide bound to HA-coated film was again determined by fluorescence analysis, as described above.
The binding behavior of the peptides (both modular peptide, VEGF-OCN (SEQ ID NO:18), and VEGF-mimic) were analyzed and compared as described above. The amount of bound VEGF-OCN on the HA particle increased with peptide concentration and reached saturation at 15 μM (FIG. 8A).

[2] = test system: mouse yolk sac endothelial C166-GFP cells; test: C166-GFP cell proliferation with soluble peptides (CYQUANT); assay type: cell-based; details: soluble peptide, 48 hours of stimulation, compared to a control
Experimental: To determine biological activity of VEGF portion for promoting cell proliferation, mouse yolk sac endothelial C166-GFP cells were seeded at a density of 3.12×10^3 cells/cm^2 (1×10^3 cells per well) in 96-well plate, allowed to attach for six hours, and then stimulated with either VEGF-OCN or VEGF-mimic After 48 hours of stimulation, optical micrographs were taken using Olympus IX-51 microscope and cell numbers were determined by CYQUANT assay.

[3] = test system: mouse yolk sac endothelial C166-GFP cells; test: C166-GFP cell proliferation on peptide-treated HA slabs (CYQUANT); assay type: cell-based; details: peptide-treated HA slab, 2-day culture, compared to control
Experimental: Cells were again seeded at a density of 2×10^4 cells/cm^2 (4×10^4 cells per well) in 24-well plate. Prior to seeding, HA slabs (1 cm×1 cm) were incubated in peptide solution (PBS) for four hours at 37° C. and copiously rinsed with deionized water, and then placed in a well of the 24-well plate. After 1-day culture, cells were treated with 2 μM calcein AM solution, and imaged using Olympus IX-51 microscope.
Additionally, a cell number count of the C166-GFP cells as cultured in the presence of VEGF-OCN or VEGF mimic was determined For the cell count, cells were seeded at a density of 5×10^3 cells/cm^2 (1×10^4 cells per well) in a 24-well plate. After 2-day culture, cells were detached from the HA slab and cell number was assessed using CYQUANT assay.

[4] = test system: hMSCs; test: Alkaline phosphatase (ALP) activity in hMSCs; assay type: cell-based, human; details: soluble peptide (50 μg in 500 μl) with osteogenic supplements, hMSCs on TCP, day 12
Experimental: hMSCs (Cambrex, Walkersville, Md., passages 5-6) were cultured in mesenchymal stem cell growth medium (MSCGM: Cambrex) consisting of MSC Basal Medium supplemented with 10% fetal bovine serum, L-glutamine, 100 units/ml penicillin, and 0.1 mg/ml streptomycin. 2.5×10^4 hMSCs were seeded onto either tissue culture-treated polystyrene (TCP) or four different types of experimental substrates (1 cm^2) (PLG, HA-coated PLG, eBGu3-treated HA coating, or eBGa3-treated HA coating). hMSCs were allowed to attach to each substrate overnight, then cultured in MSCGM with osteogenic culture supplements (OS) (0.1 μM dexamethasone, 50 μg/ml ascorbic acid, and 10 mM β-glycerophosphate) for 24 days. The effects of soluble peptides included in culture medium were evaluated by adding 50 μg of eBGu3 or eBGa3 peptides to hMSC cultures on TCP in 500 μl of medium with or without osteogenic culture supplements. […]
The biological activity of modular peptides was initially assayed by their ability to enhance ALP activity in hMSCs. […] ALP activity was measured at 405 nm, and calculated as the ratio of p-nitrophenol released to total DNA concentration (nmol/min/μg DNA). To determine the amount of total DNA in each well, the cell nuclei were disrupted by addition of the aforementioned lysis buffer followed by centrifugation, and quantified using the CyQUANT Assay Kit (Molecular Probes, Eugene, Oreg.).

[5] = test system: hMSCs; test: Mineralized tissue formation by hMSCs (Alizarin Red-S staining); assay type: cell-based, human; details: soluble peptide (50 μg in 500 μl) with osteogenic supplements, hMSCs on TCP, day 20
Experimental: hMSCs (Cambrex, Walkersville, Md., passages 5-6) were cultured in mesenchymal stem cell growth medium (MSCGM: Cambrex) consisting of MSC Basal Medium supplemented with 10% fetal bovine serum, L-glutamine, 100 units/ml penicillin, and 0.1 mg/ml streptomycin. 2.5×10^4 hMSCs were seeded onto either tissue culture-treated polystyrene (TCP) or four different types of experimental substrates (1 cm^2) (PLG, HA-coated PLG, eBGu3-treated HA coating, or eBGa3-treated HA coating). hMSCs were allowed to attach to each substrate overnight, then cultured in MSCGM with osteogenic culture supplements (OS) (0.1 μM dexamethasone, 50 μg/ml ascorbic acid, and 10 mM β-glycerophosphate) for 24 days. The effects of soluble peptides included in culture medium were evaluated by adding 50 μg of eBGu3 or eBGa3 peptides to hMSC cultures on TCP in 500 μl of medium with or without osteogenic culture supplements. In each experimental and control sample, whole volume medium changes were performed every 4 days by replacement with fresh medium and collected medium was used for BMP-2 and OCN ELISA assays.
Characterization of mineralized tissue growth was performed via Alizarin Red-S (ARS) staining at day 20. […] For quantification of staining, 400 μl 10% (v/v) acetic acid was added to each well for 30 minutes with shaking. […] Aliquots (100 μl) of the supernatant were read in triplicate at 405 nm in 96-well plate reader.

Substance | peptide concentration at which bound amount reached saturation ([1]; HA particle) [µM] | time to complete binding to HA particle ([1]; HA particle) | cell number [2] | cell number [3] | amount bound to HA slab ([1]; HA slab, qualitative comparison) | effect on ALP activity [4] | effect on mineralized tissue formation [5]
KLTWQELYQLKYKGI-GGGAAAA-γEPRRγEVAγEL (KLTWQELYQLKYKGIGGGAAAA[Gla]PRR[Gla]VA[Gla]L) [VEGF-OCN] | 15 | completed within five minutes | increase in cell number to the similar extent when compared to a control | promoted cell proliferation | – | – | –
KLTWQELYQLKYKGI [VEGF-mimic, First synthesized by Pedon, et al., inspired by the VEGF helical region, reference compound] | – | – | increase in cell number to the similar extent when compared to a control | – | much less than that of VEGF-OCN | – | –
KIPKASSVPTELSAISTLYLAAAAγEPRRγEVAγEL (KIPKASSVPTELSAISTLYLAAAA[Gla]PRR[Gla]VA[Gla]L-NH2; N-terminus assumed; SMILES CC[C@H](C)[C@H](NC(=O)[C@H](C)NC(=O)[C@H](CO)NC(=O)[C@H](CC(C)C)NC(=O)[C@H](CCC(=O)O)NC(=O)[C@@H](NC(=O)[C@@H]1CCCN1C(=O)[C@@H](NC(=O)[C@H](CO)NC(=O)[C@H](CO)NC(=O)[C@H](C)NC(=O)[C@H](CCCCN)NC(=O)[C@@H]1CCCN1C(=O)[C@@H](NC(=O)[C@@H](N)CCCCN)[C@@H](C)CC)C(C)C)[C@@H](C)O)C(=O)N[C@@H](CO)C(=O)N[C@H](C(=O)N[C@@H](CC(C)C)C(=O)N[C@@H](Cc1ccc(O)cc1)C(=O)N[C@@H](CC(C)C)C(=O)N[C@@H](C)C(=O)N[C@@H](C)C(=O)N[C@@H](C)C(=O)N[C@@H](C)C(=O)N[C@@H](CC(C(=O)O)C(=O)O)C(=O)N1CCC[C@H]1C(=O)N[C@@H](CCCNC(=N)N)C(=O)N[C@@H](CCCNC(=N)N)C(=O)N[C@@H](CC(C(=O)O)C(=O)O)C(=O)N[C@H](C(=O)N[C@@H](C)C(=O)N[C@@H](CC(C(=O)O)C(=O)O)C(=O)N[C@@H](CC(C)C)C(N)=O)C(C)C)[C@@H](C)O) [eBGa3] | – | – | – | – | – | significantly increased ALP activity | significantly increased
KIPKASSVPTELSAISTLYLAAAAEPRREVAEL [eBGu3] | – | – | – | – | – | no significant differences between the positive effects of eBGu3 and eBGa3 | no significant differences between the positive effects of eBGu3 and eBGa3
